Starred links: 1 amine or outer side, 2 acyl side, 3 side chain; linkers in the order of their positions; H or OH if unused. Non-standard residues stand in square brackets, D forms with d. Residues, ends and D or L forms follow the SMILES beside them. *: point of attachment. Dolaproine = CO[C@@H]([C@@H]1CCCN1)[C@@H](C)C(=O)O; Hexanoyl(6-maleimido) = O=C1C=CC(=O)N1CCCCCC(=O)*; Dil = CC[C@H](C)[C@H](NC)[C@@H](CC(=O)O)OC; PABC = O=C(OCc1ccc(N[*:1])cc1)[*:2]; X1 = C[C@@H](N*)[C@@H](O)c1ccccc1; Cit = NC(=O)NCCC[C@H](N)C(=O)O; NMeV = CN[C@H](C(=O)O)C(C)C
How the values were obtained:
Assay type in all cases: cell-based
MIA PaCa-2 cells = test: 72-h cytotoxicity (MTS), MIA PaCa-2; settings: MIA PaCa-2, 72-h incubation
Procedure: (§1) Cells were seeded in wells of a 96-well plate (6000 cells/well) and incubated overnight to allow for cell adherence. On the second day, 100 μL complete medium containing VcMMAE and Sgc8c-M (400, 200, 100, 50, 25, 12.5, and 6.25 nM), as well as MMAE (5, 2.5, 1.25, 0.625, 0.3125, 0.15625, and 0.078125 nM), were added to wells of a 96-well plate for an additional 72-h incubation at 37 °C. At the end of incubation, 100 μL of CellTiter 96® Aqueous One Solution Cell Proliferation Assay (MTS, Promega) solution (prepared by mixing 2 mL MTS with 9 mL of complete medium) were added to each well. The plates were then incubated for an additional 1–2 h to allow for the formation of formazan crystals. The absorbance of each well was measured at 490 nm using a Multi-Mode Microplate Reader (TECAN, SPARK) to assess cell viability. Cell viability was calculated as [OD490 (treatment) - OD490 (blank)]/[OD490 (nontreatment) - OD490 (blank)] × 100%.

HT-29 cells = test: 72-h cytotoxicity (MTS), HT-29; settings: HT-29, 72 h
Procedure: as §1

OVCAR3 cells = test: 72-h cytotoxicity (MTS), OVCAR3; settings: OVCAR3, 72 h
Procedure: as §1

CC[C@H](C)[C@@H]([C@@H](CC(=O)N1CCC[C@H]1[C@H](OC)[C@@H](C)C(=O)N[C@H](C)[C@@H](O)c1ccccc1)OC)N(C)C(=O)[C@@H](NC(=O)[C@H](C(C)C)N(C)C(=O)OCc1ccc(NC(=O)[C@H](CCCNC(N)=O)NC(=O)[C@@H](NC(=O)CCCCCN2C(=O)C=CC2=O)C(C)C)cc1)C(C)C [VcMMAE, MC-VC-PAB-MMAE] ({Hexanoyl(6-maleimido)}-V[Cit][PABC][NMeV]V[Dil][Dolaproine]-X1)
IC50 (MIA PaCa-2 cells): 187 nM
IC50 (HT-29 cells): 203 nM
IC50 (OVCAR3 cells): 105 nM
